Experimental data published in patent US20220054476A1, “SUSTAINED LOCAL DRUG LEVELS FOR INNATE IMMUNE AGONISTS” (Ascendis Pharma Oncology Division A/S, priority 2019, published 2022).
Marks after values point to notes of the source that are not given here.

Tests used:
CT26 tumor cells = test: In vivo anti-tumor efficacy, absolute tumor volumes (Example 11); set-up: species or system BALB/C mice; conditions: single intratumoral dose (4: 20 μg; 13c: 50 μL)
Description: Mice were subcutaneously implanted with 3×10^5 CT26 tumor cells in the left and right flanks. […] Hydrogels were administered as suspensions in PBST buffer. Following treatment initiation, anti-tumor efficacy was assessed by determination of tumor volumes at various time points from tumor size measurements with a caliper. Tumor volumes were calculated according to the formula: Tumor volume=(L×W^2)×0.5 where L is the length of the tumor and W the width (both in mm). Mice were removed from the study once tumors were greater than 1500 mm^3.

[1] = test system: IFNγ, IL-6, CCL2/MCP-1, TNFα in plasma; test: In vivo cytokine induction, plasma cytokine levels (Example 12); set-up: species or system BALB/C mice; conditions: for IFNγ plasma level, Mean: values at/below LLOQ set to 0.01
Description: Mice were subcutaneously implanted with 3×10^5 CT26 tumor cells in the left and right flanks. […] Hydrogels were administered as suspensions in PBST buffer. K2 EDTA-preserved blood samples were collected by retro-orbital bleed at various time points following drug administration and plasma was isolated following centrifugation at 2000×g for 5 minutes at 4° C. and frozen. Plasma samples were stored at −80° C. Plasma was thawed and undiluted samples were assessed for cytokine levels using the 36-Plex Mouse ProcartaPlex™ Cytokine Panel 1A (ThermoFisher Scientific) following manufacturer's recommendations. Cytokines were measured on the Bio-Plex 200 (BioRad) following kit instructions.

in vivo = test: in vivo; set-up: species or system WISTAR rats; conditions: male, Wistar, rat, sc, 25 ug; for half-life: t1/2 (biphasic)
Text: Hydrogels were suspended (ca. 6% wt/v) PBST buffer at pH 7.4. […] Blood samples were withdrawn and used for plasma generation over the course of 28 d. […] Plasma concentration profiles were generated and analyzed with Phoenix WinNonlin software (Certara, Princeton, N.J., USA).

[2] = Resiquimod concentration in plasma samples after intratumoral injection (Example 17); assay type: in vivo, BALB/C mice; conditions: female, BALB/C, mouse, other: intratumoral injection, 10 μg
Description: Hydrogels were administered as suspensions in PTP buffer. […] Tumors were excised, weighed and snap frozen.

[3] = 1 h post-treatment, single intratumoral dose
[4] = 3 h post-treatment, single intratumoral dose
[5] = 6 h post-treatment, single intratumoral dose
[6] = 10 h post-treatment, single intratumoral dose
[7] = 24 h post-treatment, single intratumoral dose

## CCOCc1nc2c(N)nc3ccccc3c2n1CC(C)(C)O [Compound 4, Resiquimod]
CT26 tumor cells; day 0 post-treatment
  Absolute Tumor Volumes, Mean: 88.82 mm^3
CT26 tumor cells; day 2 post-treatment
  Absolute Tumor Volumes, Mean: 108.44 mm^3
CT26 tumor cells; day 4 post-treatment
  Absolute Tumor Volumes, Mean: 128.42 mm^3
CT26 tumor cells; day 7 post-treatment
  Absolute Tumor Volumes, Mean: 316.07 mm^3
CT26 tumor cells; day 9 post-treatment
  Absolute Tumor Volumes, Mean: 549.72 mm^3
CT26 tumor cells; day 11 post-treatment
  Absolute Tumor Volumes, Mean: 957.90 mm^3
CT26 tumor cells; day 14 post-treatment
  Absolute Tumor Volumes, Mean: 1220.96 mm^3
[1]; [3]
  CCL2/MCP-1 plasma level, Mean: 357.83 pg/mL
  IL-6 plasma level, Mean: 3618.87†, ‡ pg/mL
  TNFα plasma level, Mean: 830.84 pg/mL
[1]; 1 h post-treatment, single intratumoral dose (4: 20 μs; 13c: 50 μL)
  IFNγ plasma level, Mean: 4.04 pg/mL
[1]; [4]
  CCL2/MCP-1 plasma level, Mean: 4230.35†, ‡ pg/mL
  IL-6 plasma level, Mean: 1739.75†, ‡ pg/mL
  TNFα plasma level, Mean: 136.25 pg/mL
  IFNγ plasma level, Mean: 15.49†, ‡ pg/mL
[1]; [5]
  CCL2/MCP-1 plasma level, Mean: 1039.17†, ‡ pg/mL
  IL-6 plasma level, Mean: 88.59 pg/mL
  TNFα plasma level, Mean: 35.49 pg/mL
  IFNγ plasma level, Mean: 40.72†, ‡ pg/mL
[1]; [6]
  CCL2/MCP-1 plasma level, Mean: 847.07† pg/mL
  IL-6 plasma level, Mean: 154.51 pg/mL
  TNFα plasma level, Mean: 43.32 pg/mL
  IFNγ plasma level, Mean: 28.19†, ‡ pg/mL
[1]; [7]
  CCL2/MCP-1 plasma level, Mean: 92.58 pg/mL
  IL-6 plasma level, Mean: 44.71 pg/mL
  TNFα plasma level, Mean: 9.74 pg/mL
  IFNγ plasma level, Mean: 2.38 pg/mL
In vivo
  AUC: 65.4 ng·h/mL
  Cmax: 23.1 ng/mL
In vivo; first value
  half-life: 1.5 h
In vivo; second value
  half-life: 10 h
[2]; 0 hours
  concentration at 0 h: 210 ng/mL
[2]; 6 hours
  concentration at 6 h: 0.36 ng/mL
[2]; 22 hours
  concentration at 22 h: 0.022 ng/mL
[2]; 72 hours
  concentration at 72 h: 0.014 ng/mL
